Laboratory results taken from publication PMC9768162, “Synthesis of macrocyclic nucleoside antibacterials and their interactions with MraY” (Nature Communications, 2022).
Values after ≈ are worked out from the molar mass of the structure shown. Read-outs that look alike come from different tables or passages of the source. Marks after values point to notes of the source that are not given here.

Tests used:
A. baumannii [1] = system: A. baumannii; parameters: method as in PMID 24014169; conditions: A. baumannii ATCC 19606; cited from earlier work
P. aeruginosa [2] = system: P. aeruginosa; parameters: method as in PMID 24014169; conditions: P. aeruginosa ATCC 15692 (footnote e); cited from earlier work
S. aureus [3] = conditions: cited from earlier work
MraY (E. coli) = system: MraY (E. coli); parameters: method as in PMID 24014169; conditions: cited from earlier work
K. pneumoniae [4] = system: K. pneumoniae; parameters: method as in PMID 24014169; conditions: K. pneumoniae ATCC 13883; cited from earlier work
E. faecium [5] = system: E. faecium; parameters: method as in PMID 24014169; conditions: cited from earlier work
Gram-positive bacteria = system: Gram-positive bacteria; parameters: method as in PMID 24014169; conditions: range over strains; cited from earlier work
E. faecalis [6] = system: E. faecalis; parameters: method as in PMID 24014169; conditions: E. faecalis ATCC 29212; cited from earlier work
E. cloacae [7] = system: E. cloacae; parameters: method as in PMID 24014169; conditions: E. cloacae ATCC 13047; cited from earlier work
E. faecium [8] = assay: Antibacterial activity, MIC by microdilution broth method (CLSI); type: cell-based, Enterococcus faecium; conditions: for MIC: Enterococcus faecium, read-out: MIC
M. tuberculosis = assay: MIC in 7H9 liquid medium, 2 weeks; type: cell-based; conditions: Mycobacterium tuberculosis, 336 h, M. tuberculosis H37Rv, 37 °C, minimum concentration inhibiting at least 50% of growth
K. pneumoniae [9] = assay: Antibacterial activity, MIC by microdilution broth method (CLSI); type: cell-based; conditions: Klebsiella pneumoniae, ATCC13883; K. pneumoniae ATCC 13883; CA-MHB, 37 °C, 20 h
E. faecalis [10] = assay: as above; type: cell-based; conditions: for MIC: Enterococcus faecalis
[11] = system: vancomycin-resistant Enterococci (VRE), clinically isolated E. faecium and E. faecalis; type: cell-based; conditions: VRE E. faecium ATCC 51559, 51858, E. faecalis 51299 and clinically isolated E. faecium and E. faecalis
E. cloacae [12] = assay: Antibacterial activity, MIC by microdilution broth method (CLSI); type: cell-based; conditions: Enterobacter cloacae, ATCC13047; E. cloacae ATCC 13047; CA-MHB, 37 °C, 20 h
E. coli = assay: as above; conditions: E. coli ATCC 25922; CA-MHB, 37 °C, 20 h
[13] = biological target: T1, MraYSA (S. aureus MraY enzyme) (Staphylococcus aureus, UniProt Q2FZ93); assay: Fluorescence-based MraY inhibitory assay (dansylated Park's nucleotide); conditions: for MraYSA activity, source data of Fig. 7b, average: average of n=1-3
T1 sequence (Q2FZ93 1-321): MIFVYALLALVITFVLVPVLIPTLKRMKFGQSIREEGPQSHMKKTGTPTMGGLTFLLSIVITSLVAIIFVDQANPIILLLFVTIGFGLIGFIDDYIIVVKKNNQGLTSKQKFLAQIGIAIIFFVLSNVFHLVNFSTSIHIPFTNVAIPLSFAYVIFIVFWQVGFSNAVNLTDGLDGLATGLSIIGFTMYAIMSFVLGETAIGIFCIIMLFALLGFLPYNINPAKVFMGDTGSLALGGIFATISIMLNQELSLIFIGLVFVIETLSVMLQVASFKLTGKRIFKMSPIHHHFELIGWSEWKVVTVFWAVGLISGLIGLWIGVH

M. avium = assay: MIC in 7H9 liquid medium, 2 weeks; type: cell-based; conditions: Mycobacterium avium, ATCC25291, 336 h, M. avium ATCC 25291, 37 °C, minimum concentration inhibiting at least 50% of growth
A. baumannii [14] = assay: Antibacterial activity, MIC by microdilution broth method (CLSI); type: cell-based; conditions: Acinetobacter baumannii, ATCC19606; A. baumannii ATCC 19606; CA-MHB, 37 °C, 20 h
P. aeruginosa [15] = assay: as above; type: cell-based; conditions: Pseudomonas aeruginosa, ATCC27853; P. aeruginosa ATCC 27853; CA-MHB, 37 °C, 20 h
S. aureus [16] = assay: as above; type: cell-based, Staphylococcus aureus; conditions: Staphylococcus aureus
[17] = biological target: T1, MraYSA (S. aureus MraY enzyme); parameters: His tag (inferred from His-Trap purification); made in house; host or cells: E. coli; method as in PMID 27622529; conditions: read-out: MraYSA inhibitory activity IC50; cited from earlier work

Compound: CCCC(C)CC(C)CC(C)CC(C)/C=C(C)/C=C/C(O)C(C)C(=O)OC1C(O)CN2CC1NC[C@H]1O[C@@H](O[C@H]([C@H]3O[C@@H](n4ccc(=O)[nH]c4=O)[C@H](O)[C@@H]3OS(=O)(=O)O)[C@H]2C(=O)O)[C@H](O)[C@@H]1O (some centres unmarked) [Sphaerimicin A]
- MIC (A. baumannii [1]): >128 µg/mL
- MIC (P. aeruginosa [2]): >128^e μg/mL
- MIC (S. aureus [3]; S. aureus ATCC 6538P): 4^d μg/mL
- MIC (S. aureus [3]; S. aureus ATCC 6538P, listed as sphaerimicin A): 4 µg/mL (≈ 4.1 µM)
- IC50 (MraY (E. coli)): 13.9 nM
- IC50 for MraY (MraY (E. coli)): 0.0135 µg/mL
- MIC (K. pneumoniae [4]): >128 µg/mL
- MIC (E. faecium [5]; (footnote c)): 2^c μg/mL
- MIC (E. faecium [5]; E. faecium ATCC 19434): 2 µg/mL (≈ 2.05 µM)
- MIC against Gram-positive bacteria (Gram-positive bacteria): 1 to 16 µg/mL
- MIC (E. faecalis [6]): 2 µg/mL (≈ 2.05 µM)
- MIC (E. cloacae [7]): >128 µg/mL

Compound: CCCCCCCCCCCCCCCC(=O)O[C@@H]1C[C@@H]2CN(C1)[C@H](C(=O)O)[C@@H]([C@H]1O[C@@H](n3ccc(=O)[nH]c3=O)[C@H](O)[C@@H]1O)O[C@@H]1O[C@H](CN2)[C@@H](O)[C@H]1O [SPM-3]
- MIC (E. faecium [8]; ATCC35667, 20 h, E. faecium ATCC 35667, CA-MHB, 37 °C, 20 h): 2 µg/mL (≈ 2.6 µM)
- MIC (E. faecium [8]; ATCC 51559 / VRE, E. faecium (VRE) ATCC 51559): 2 µg/mL (≈ 2.6 µM)
- MIC (E. faecium [8]; ATCC 51858 / VRE, E. faecium (VRE) ATCC 51858): 8 µg/mL (≈ 10.4 µM)
- MIC (E. faecium [8]; clinically isolated E. faecium strain 1): 2 µg/mL (≈ 2.6 µM)
- MIC (E. faecium [8]; clinically isolated E. faecium strain 2): 2 µg/mL (≈ 2.6 µM)
- MIC (E. faecium [8]; clinically isolated E. faecium strain 3): 4 µg/mL (≈ 5.2 µM)
- MIC (E. faecium [8]; clinically isolated E. faecium strain 4): 1 µg/mL (≈ 1.3 µM)
- MIC (E. faecium [8]; clinically isolated E. faecium strain 5): 2 µg/mL (≈ 2.6 µM)
- MIC (E. faecium [8]; clinically isolated E. faecium strain 7): 2 µg/mL (≈ 2.6 µM)
- MIC (E. faecium [8]; clinically isolated E. faecium strain 8): 2 µg/mL (≈ 2.6 µM)
- MIC (E. faecium [8]; clinically isolated E. faecium strain 9): 1 µg/mL (≈ 1.3 µM)
- MIC (E. faecium [8]; clinically isolated E. faecium strain 10): 1 µg/mL (≈ 1.3 µM)
- MIC (E. faecium [8]; clinically isolated E. faecium strain 11): 4 µg/mL (≈ 5.2 µM)
- MIC (E. faecium [8]; clinically isolated E. faecium strain 13): 1 µg/mL (≈ 1.3 µM)
- MIC (E. faecium [8]; clinically isolated E. faecium strain 14): 0.5 µg/mL (≈ 0.65 µM)
- MIC (E. faecium [8]; clinically isolated E. faecium strain 15): 2 µg/mL (≈ 2.6 µM)
- MIC (range over strains) (E. faecium [8]; clinically isolated E. faecium (14 strains)): 0.5 to 4 µg/mL
- MIC (M. tuberculosis): 16 µg/mL (≈ 20.8 µM)
- MIC (K. pneumoniae [9]): > 64 µg/mL
- MIC (E. faecalis [10]; ATCC 51299 / VRE, E. faecalis (VRE) ATCC 51299): 1 µg/mL (≈ 1.3 µM)
- MIC (E. faecalis [10]; clinically isolated E. faecalis strain 21): 0.5 µg/mL (≈ 0.65 µM)
- MIC (E. faecalis [10]; clinically isolated E. faecalis strain 22): 0.5 µg/mL (≈ 0.65 µM)
- MIC (E. faecalis [10]; clinically isolated E. faecalis strain 23): 1 µg/mL (≈ 1.3 µM)
- MIC (E. faecalis [10]; clinically isolated E. faecalis strain 24): 1 µg/mL (≈ 1.3 µM)
- MIC (E. faecalis [10]; clinically isolated E. faecalis strain 25): 0.5 µg/mL (≈ 0.65 µM)
- MIC (E. faecalis [10]; clinically isolated E. faecalis strain 26): 0.5 µg/mL (≈ 0.65 µM)
- MIC (E. faecalis [10]; clinically isolated E. faecalis strain 27): 0.5 µg/mL (≈ 0.65 µM)
- MIC (E. faecalis [10]; clinically isolated E. faecalis strain 28): 1 µg/mL (≈ 1.3 µM)
- MIC (E. faecalis [10]; clinically isolated E. faecalis strain 29): 1 µg/mL (≈ 1.3 µM)
- MIC (E. faecalis [10]; clinically isolated E. faecalis strain 30): 0.5 µg/mL (≈ 0.65 µM)
- MIC (E. faecalis [10]; clinically isolated E. faecalis strain 31): 1 µg/mL (≈ 1.3 µM)
- MIC (E. faecalis [10]; clinically isolated E. faecalis strain 32): 1 µg/mL (≈ 1.3 µM)
- MIC (E. faecalis [10]; clinically isolated E. faecalis strain 33): 1 µg/mL (≈ 1.3 µM)
- MIC (E. faecalis [10]; clinically isolated E. faecalis strain 34): 0.5 µg/mL (≈ 0.65 µM)
- MIC (E. faecalis [10]; clinically isolated E. faecalis strain 35): 1 µg/mL (≈ 1.3 µM)
- MIC (range over strains) (E. faecalis [10]; clinically isolated E. faecalis (15 strains)): 0.5 to 1 µg/mL
- MIC (range over strains) [11]: 0.5 to 8 µg/mL
- MIC (E. cloacae [12]): > 64 µg/mL
- MIC (E. coli): >64 µg/mL
- IC50 [13]: 41 nM
- MraYSA activity, source data of Fig. 7b, average ([13]; compound 0.0001 µM): 97.0831
- MraYSA activity, source data of Fig. 7b, average ([13]; compound 0.001 µM): 91.2486
- MraYSA activity, source data of Fig. 7b, average ([13]; compound 0.01 µM): 63.9982
- MraYSA activity, source data of Fig. 7b, average ([13]; compound 0.1 µM): 42.189
- MraYSA activity, source data of Fig. 7b, average ([13]; compound 1 µM): 10.7538
- MraYSA activity, source data of Fig. 7b, average ([13]; compound 10 µM): 6.7446
- MraYSA activity, source data of Fig. 7b, average ([13]; compound 100 µM): 3.028
- fold weaker compared to SPM-1 (MraYSA IC50) ([13]; ratio of IC50 values, SPM-3 vs SPM-1): 4.5 fold
- MIC (M. avium): 4 µg/mL (≈ 5.2 µM)
- MIC (A. baumannii [14]): > 64 µg/mL
- MIC (P. aeruginosa [15]): > 64 µg/mL
- MIC (S. aureus [16]; ATCC29213, 20 h, S. aureus ATCC 29213, CA-MHB, 37 °C, 20 h): 8 µg/mL (≈ 10.4 µM)
- MIC (S. aureus [16]; MRSA, 20 h, S. aureus (MRSA) JE2, CA-MHB, 37 °C, performed once): 8 µg/mL (≈ 10.4 µM)
- MIC (S. aureus [16]; MRSA, clinically isolated MRSA #1958): 16 µg/mL (≈ 20.8 µM)
- MIC (S. aureus [16]; MRSA, clinically isolated MRSA #2071): 16 µg/mL (≈ 20.8 µM)
- MIC (S. aureus [16]; MRSA, clinically isolated MRSA #2110): > 64 µg/mL
- MIC (S. aureus [16]; MRSA, clinically isolated MRSA #2310): 32 µg/mL (≈ 41.6 µM)
- MIC (S. aureus [16]; MRSA, clinically isolated MRSA #2334): > 64 µg/mL
- MIC (S. aureus [16]; MRSA, clinically isolated MRSA #2931): 4 µg/mL (≈ 5.2 µM)
- MIC (S. aureus [16]; MRSA, clinically isolated MRSA #2932): 32 µg/mL (≈ 41.6 µM)
- MIC (S. aureus [16]; MRSA, clinically isolated MRSA #2933): 8 µg/mL (≈ 10.4 µM)
- MIC (S. aureus [16]; MRSA, clinically isolated MRSA #2934): 8 µg/mL (≈ 10.4 µM)
- MIC (S. aureus [16]; MRSA, clinically isolated MRSA #2935): 32 µg/mL (≈ 41.6 µM)

Compound: CCCCCCCCCCCCCCCCC[C@H]1CN(C)[C@@H]([C@H](O[C@@H]2O[C@H](CN)[C@@H](O)[C@H]2O)[C@H]2O[C@@H](n3ccc(=O)[nH]c3=O)[C@H](O)[C@@H]2O)C(=O)N(C)[C@@H]1C(=O)O [Carbacaprazamycin]
- IC50 [17]: 3.8 nM
- MIC (S. aureus [3]; S. aureus ATCC 29213): 8 µg/mL (≈ 10 µM)
